Values of other authors, collected in US11980186B2, “Preparation method of eucalyptol emulsion and application thereof in biopesticides” (Jiangnan University, priority 2021, dated 2024).
≈ marks a conversion by molar mass, not a printed value.

Test system: B. tabaci
Settings: literature value

O=C1CCC[C@@H]2[C@H]3CCCN4CCC[C@@H](CN12)[C@@H]34 [matrine]
LC50 against the B. tabaci: 13.35 µg/mL (≈ 53.8 µM)
